The text below walks through data of PubChem BioAssay AID743308 (Sanford-Burnham Center for Chemical Genomics, 2014).

The assay addresses Low molecular weight phosphotyrosine protein phosphatase (Homo sapiens) (UniProt P24666). The assay is described as follows: LMPTP phosphatase inhibitors, colorimetric pNPP readout, dose response, orthogonal assay, biochemical, absorbance, pNPP substrate, LMPTP-A isoform, set 2 (AID 743308). The following applies: recombinant LMPTP-A.

Low molecular weight phosphotyrosine protein phosphatase (Homo sapiens), sequence (P24666 whole entry, looked up, canonical isoform): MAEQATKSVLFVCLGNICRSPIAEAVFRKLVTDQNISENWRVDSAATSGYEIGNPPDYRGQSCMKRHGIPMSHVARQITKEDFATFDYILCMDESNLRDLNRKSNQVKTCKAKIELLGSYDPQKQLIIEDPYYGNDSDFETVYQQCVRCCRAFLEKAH

In general, IC50 refers to the midpoint of a concentration-inhibition curve. On to `COc1ccc(-c2cc(NCCCN3CCCCC3)c3ccccc3n2)cc1`, for which the IC50 is 3.52 µM.
